Experiments:
[1] = shake flask on a mixture of 185; loss from the water phase only; LC-QTOF peak areas; details: room
[2] = shake flask on a mixture of 185; loss from the water phase only; LC-Orbitrap peak areas; details: room

| Compound | log partition 1-octanol / HPLC water, unbuffered, traces of methanol / DMSO [1] [log10] | log partition butyl acetate / HPLC water, unbuffered, traces of methanol / DMSO [1] [log10] | log partition chloroform / HPLC water, unbuffered, traces of methanol / DMSO [1] [log10] | log partition dichloromethane / HPLC water, unbuffered, traces of methanol / DMSO [1] [log10] | log partition oleylalcohol / HPLC water, unbuffered, traces of methanol / DMSO [1] [log10] | log partition toluene / HPLC water, unbuffered, traces of methanol / DMSO [1] [log10] | log partition 1-octanol / HPLC water, unbuffered, traces of methanol / DMSO [2] [log10] | log partition butyl acetate / HPLC water, unbuffered, traces of methanol / DMSO [2] [log10] | log partition chloroform / HPLC water, unbuffered, traces of methanol / DMSO [2] [log10] | log partition dichloromethane / HPLC water, unbuffered, traces of methanol / DMSO [2] [log10] | log partition oleylalcohol / HPLC water, unbuffered, traces of methanol / DMSO [2] [log10] | log partition toluene / HPLC water, unbuffered, traces of methanol / DMSO [2] [log10] | log partition cyclohexane / HPLC water, unbuffered, traces of methanol / DMSO [1] [log10] | log partition n-hexane / HPLC water, unbuffered, traces of methanol / DMSO [1] [log10] | log partition n-octane / HPLC water, unbuffered, traces of methanol / DMSO [1] [log10] | log partition n-undecane / HPLC water, unbuffered, traces of methanol / DMSO [1] [log10] | log partition cyclohexane / HPLC water, unbuffered, traces of methanol / DMSO [2] [log10] | log partition n-hexane / HPLC water, unbuffered, traces of methanol / DMSO [2] [log10] | log partition n-octane / HPLC water, unbuffered, traces of methanol / DMSO [2] [log10] | log partition n-undecane / HPLC water, unbuffered, traces of methanol / DMSO [2] [log10] |
| --- | --- | --- | --- | --- | --- | --- | --- | --- | --- | --- | --- | --- | --- | --- | --- | --- | --- | --- | --- | --- |
| C#CC(C)(C)NC(=O)c1cc(Cl)cc(Cl)c1 | 2.331 | 2.368 | 2.908 | 2.85 | 2.008 | 2.121 | 2.462 | 2.969 | 1.414 | 3 | 2.211 | 2.779 | – | – | – | – | – | – | – | – |
| Cc1cc2c3c(c1)C(c1ccccc1)=N[C@@H](NC(=O)c1ccncc1)C(=O)N3CC2 | 2.552 | 2.569 | 2.171 | 2.144 | 2.273 | 2.127 | 1.331 | 2.844 | 1.438 | 2.402 | 1.282 | 1.875 | 0.1916 | -0.2402 | -0.1186 | -0.161 | 0.6947 | -0.4559 | 0.088 | 0.07291 |
| O=C(c1ccccc1)c1ccc(O)cc1O | 2.033 | 2.368 | 1.568 | 1.235 | 1.696 | 1.076 | 1.665 | 2.111 | 0.8448 | 1.668 | 1.444 | 0.1696 | -0.7702 | -0.7955 | -0.8875 | -0.7905 | -0.5373 | -1.173 | -0.7644 | -1.267 |
| CCc1ccc(C(=O)NN(C(=O)c2cc(C)cc(C)c2)C(C)(C)C)cc1 | 1.362 | 1.733 | 1.756 | 1.824 | 1.649 | 1.989 | 1.544 | 1.55 | 1.889 | 1.493 | 0.7925 | 1.17 | 1.284 | 1.035 | 0.9128 | 0.8541 | 2.061 | 1.296 | 1.432 | 1.36 |
| CCCCNS(=O)(=O)c1ccc(C)cc1 | 1.761 | 1.471 | 1.664 | 1.556 | 1.505 | 1.679 | 1.509 | 1.21 | 1.689 | 1.83 | 0.9177 | 1.122 | 0.988 | 0.6036 | 0.3273 | 0.4324 | 0.5819 | 0.2985 | 0.4632 | 0.151 |
| Cc1cc(C)nc(NS(=O)(=O)c2ccc(N)cc2)n1 | -0.08641 | -0.1162 | -0.2658 | -0.5411 | -0.5276 | -1.085 | -0.03015 | -0.1328 | 0.1061 | -0.3816 | -0.3433 | -1.077 | -0.9757 | -1.336 | -1.319 | -1.455 | -0.9043 | -0.631 | -0.6854 | -0.8904 |
| c1ccc2[nH]c(-c3cscn3)nc2c1 | 0.8781 | 0.7498 | 0.5738 | 0.733 | 0.7334 | 0.2898 | 1.814 | 2.093 | 1.499 | 1.694 | 1.762 | 0.9569 | -1.051 | -0.9485 | -1.018 | -1.324 | 0.0278 | -0.1668 | -0.1168 | -1.167 |
| CCOc1ccc2[nH]cc(C(=O)NCc3ccccc3)c(=O)c2n1 | 2.233 | 1.386 | 2.411 | 1.249 | 2.032 | -0.4984 | 3.526 | 2.502 | 1.196 | 1.153 | 2.478 | -0.2525 | -1.713 | -1.238 | -1.123 | -1.345 | -1.221 | -1.633 | -1.139 | -1.372 |

Source: article PMC10569036
